According to EP4516289A1, “ANTIVIRAL NASAL SPRAY COMPRISING FAVIPIRAVIR” (SPH Sine Pharmaceutical Laboratories Co., Ltd, priority 2023, dated 2025):
≈ marks a conversion by molar mass, not a printed value.

What was measured:
[1] = Solubility and storage stability of aqueous FPV formulations (RP-HPLC on day 0 and day 7); type: physicochemical; settings: for solubility: thermodynamic from solid; for highest starting concentration of dissolved FPV: HPLC day 0, calculated approx. 17 mg/ml
Experimental: In order to determine the maximum solubility of FPV in water various samples of either raw or micronized FPV powder have been prepared. […] In this experimental set-up, the FPV starting concentration was adjusted to a calculated value of 5 mg/ml. After admixture of all ingredients the experimental samples contained 10 %v/v PEG 400, 2 %wt dexpanthenol, and either a citrate or a phosphate buffer, or a combination of both, adjusted to pH 5.5. The selected saponins were tested each in three concentrations, i.e. escin: 0.10, 0.25 and 0.50% w/v, and glycyrrhizin: 1.0, 2.5 and 5.0% w/v. Glycyrrhizin was applied in the form of dipotassium glycyrrhizinate in this and all other examples. For the quantification of FPV contents in the experimental sample formulations, an RP-HPLC method using a Zorbax Eclipse Plus C18 column from Agilent Technologies was applied and adapted for the present purpose. The results of the storage stability test of the various FPV containing samples are depicted in Table 2. Table 2: Storage stability of different aqueous formulations of 5 mg/ml FPV In an attempt to raise the starting concentration of FPV in a pharmaceutically acceptable aqueous solvent the PEG 400 / FPV stock solution was applied in an amount such as to increase the theoretical / calculated FPV concentration from 5 to about 10mg/ml, more precisely to 9.5mg/ml. After admixture of the predetermined portion of PEG 400 solvent comprising FPV to the aqueous buffer solution the resulting samples contained 10.5 %v/v PEG 400, and 2% dexpanthenol in phosphate buffer pH 5.5. The selected saponins were applied in the following concentrations: escin: 0.01 and 0.05 %w/v; glycyrrhizin: 1.0, 2.5 and 5.0 %w/v. The sample formulations were analyzed by HPLC on day 0 and day 7, the results being depicted in Table 3. Table 3: Storage stability of different aqueous formulations of 9.5 mg/ml FPV In a next step it was tried to even further increase the FPV concentration in the aqueous solvent system. The theoretical FPV starting concentration was adjusted to approximately 17 mg/ml, more precisely to 17.2 mg/ml (raw FPV) and 17.1 mg/ml (micronized FPV), using stock solutions comprising 85.45 mg/ml (raw) and 86.07 mg/ml (micronized) FPV in PEG 400. The final experimental samples contained […] and 2% dexpanthenol in phosphate buffer, pH 5.5, along with varying saponin concentrations: escin 0.10, 0.25 and 0.50 %w/v; glycyrrhizin: 1.0, 2.5 and 5.0 %w/v. The factual - as opposed to the calculated, theoretical - FPV concentrations were determined from the sample preparations by HPLC on day 0 and day 7. Table 4: Storage stability of different aqueous formulations of 17 mg/ml FPV In yet another experimental set-up a possible influence of the organic solvent PEG 400 on the solubility and stability of buffered aqueous sample preparations containing approximately 10 mg/ml FPV was investigated. PEG 400 was used at concentrations of 0, 2.5, 5.0, 7.5 and 10.0 %v/v. The samples were prepared in phosphate buffer, pH 5.5 with 2% dexpanthenol and including at least one of the saponins in the following concentrations: escin 0.01 and 0.05 %w/v; glycyrrhizin 1.0, 2.5 and 5.0 %w/v. […] The FPV contents in the sample preparations were analyzed by HPLC on day 0 and day 7, and the results are depicted in Table 5. In this experiment, only micronized FPV powder was used and was directly added to the aqueous formulations in an amount such as to yield a calculated (theoretical) concentration of 10 mg/ml. […]

[2] = Solubility of micronized FPV in different organic solvents (visual inspection); type: physicochemical; settings: thermodynamic from solid
From the text: In order to check for a possible improvement of FPV solubility in an aqueous solvent, it was decided to follow the protocol of WO2017009480. As a first task it was necessary to find a suitable organic solvent for pre-dissolution of FPV prior to adding the pre-dissolved FPV to the buffered aqueous solvent. The results are depicted in Table 1 Table 1: Solubility of micronized FPV in different organic solvents

[3] = cited from earlier work

- solubility ([1]; 25 °C, pure water, read-out: solubility in an aqueous solution): ~4500 µg/mL
- solubility ([1]; aqueous buffer, stable pH 4 to 6, phosphate or citrate buffer system, read-out: solubility in an aqueous solution): > 10000 µg/mL
- solubility ([1]; aqueous solution without buffer, 25 °C, water, without buffer, regardless of the amount of FPV added, read-out: maximum solubility of FPV in an aqueous solution): < 5000 µg/mL
- highest starting concentration of dissolved FPV ([1]; micronized FPV in phosphate buffer without saponins and without dexpanthenol): 11.7 mg/mL
- highest starting concentration of dissolved FPV ([1]; raw FPV in phosphate buffer pH 5.5 including 5 %w/v glycyrrhizin): 11.5 mg/mL
- solubility ([2]; organic solvent or mixture, solvent Glycerol, read-out: Solubility, Visual Inspection Conc.): < 33000 µg/mL
- solubility ([2]; organic solvent or mixture, solvent PEG 400, read-out: Solubility, Visual Inspection Conc.): 90000 µg/mL (≈ 573 mM)
- solubility ([2]; organic solvent or mixture, solvent PG, read-out: Solubility, Visual Inspection Conc.): < 10000 µg/mL
- solubility ([2]; organic solvent or mixture, solvent PPG 400, read-out: Solubility, Visual Inspection Conc.): 25000 µg/mL (≈ 159 mM)
- solubility ([2]; solvent AD (distilled water), read-out: Solubility, Visual Inspection Conc.): 5000 µg/mL (≈ 31.8 mM)
Structure (SMILES): NC(=O)c1nc(F)cnc1O [FPV, 6-fluoro-3-hydroxypyrazine-2-carboxamide]
- solubility in water [3]: slightly soluble
